13 compounds from patent US20230002361A1, “2H-INDAZOLE DERIVATIVES AND THEIR USE IN THE TREATMENT OF DISEASE” (BIOGEN MA INC., priority 2019, published 2023) can be followed below.

Where a name gives a salt, the structure may show the parent alone. Read-outs that look alike come from different tables or passages of the source.

The target in one series is T1, MDR1 (P-gp) (Homo sapiens, UniProt P08183).
T1 construct: host or cells: MDCK cells
The experiment in a line: MDR1-MDCK assay (efflux ratio). The class given is in vitro ADME. The conditions noted are these: human, MDCK-MDR1, 1 μM compound, 120 minutes incubation; read-out: MDR1-MDCK Efflux Ratio; (B-A/A-B). As to the method:
• The assay makes use of human MDR1 transfected MDCK cells (NIH cell line in-licensed from Absorption Systems) • The compounds are tested at 1 μM concentration prepared in transport buffer (Hank's balanced salt solution with HEPES) • MDR1-MDCK cell are cultured for 7 days in 96 well transwell insert plates (Corning). Insert plates are washed before the assay and TEER (Trans epithelial electric resistance) is measured. • These plates are loaded with test compound solution 85 μL for A-B transport and 260 μL for B-A transport in the respective donor compartment.
Mass balance=100×((Vr×Cr^final)+(Vd×Cd^final))/(Vd×CE) • Where: • dCr/dt is the cumulative concentration in the receiver compartment versus time in μM s^−1 • Vr is the volume of the receiver compartment in cm^3 • Vd is the volume of the donor compartment in cm^3 • A is the area of the insert (0.143 cm^2 for 96-well insert) • CE is the estimated experimental concentration (Time=0) of the dosing solution • Cr^final is the concentration of the receiver at the end of the incubation period • Cd^final is the concentration of the donor at the end of the incubation period.

In the next series the target is T2, IRAK4 (Homo sapiens, UniProt Q9NWZ3).
T2 construct: with 0.1 nM IRAK4, 1.6 μM of biotinylated peptide substrate and 10 μM ATP
T2 sequence (Q9NWZ3 1-460): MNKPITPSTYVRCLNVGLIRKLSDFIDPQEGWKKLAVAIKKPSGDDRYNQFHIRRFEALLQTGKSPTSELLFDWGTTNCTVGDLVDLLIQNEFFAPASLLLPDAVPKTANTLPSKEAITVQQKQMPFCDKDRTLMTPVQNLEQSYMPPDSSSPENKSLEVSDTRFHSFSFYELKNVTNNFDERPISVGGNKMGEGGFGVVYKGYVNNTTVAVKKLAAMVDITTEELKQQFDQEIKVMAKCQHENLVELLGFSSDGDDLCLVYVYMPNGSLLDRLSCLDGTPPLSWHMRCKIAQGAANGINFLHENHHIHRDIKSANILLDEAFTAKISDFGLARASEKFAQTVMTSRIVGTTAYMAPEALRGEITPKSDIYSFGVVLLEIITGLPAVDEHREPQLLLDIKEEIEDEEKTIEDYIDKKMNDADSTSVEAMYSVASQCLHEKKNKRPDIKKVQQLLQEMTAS
The experiment in a line: IRAK4 MSD Biochemical Assay (1 mM ATP, 2 h). The conditions noted are these: room temperature. As to the method: The 2-hour 10 μM ATP Biochemical Assay employs a MesoScale Detection (MSD) format.
The activity is quenched with 11 μl of 70 mM EDTA, pH 8.
To detect the phosphorylated biotinylated peptide substrate, 30 μl of the quenched reaction mixture is added to equivalent wells of a 384 well streptavidin coated MesoScale plate (Meso Scale Discovery #L21SA-1). After a 1 hour incubation of the plate for 1 hour at room temperature with gentle mixing, the plate wells are washed 3 times with 50 mM Tris, pH 7.5, 150 mM NaCl, 0.02% Tween-20.
A 25 μl volume of 1:500 anti-P-Threonine Rabbit polyclonal Antibody plus 1:500 Goat-anti-Rabbit Sulfo Tag Antibody (Meso Scale Discovery R32AB-1) in 50 mM Tris, pH 7.5, 150 mM NaCl, 0.02% Tween-20 plus 2% BSA is then added to each well. After a 1-hour incubation of the plate for 1 hour at room temperature with gentle mixing, the plate wells are washed, 3 times with 50 mM Tris, pH 7.5, 150 mM NaCl, 0.02% Tween-20. A 40 μl volume of 2×MSD Read Buffer (Meso Scale Discovery R92TC-1) is added to each well, and the plate is read immediately in an MSD Plate Reader (Meso Scale Discovery).
The 2-hour 1 mM ATP IRAK4 Biochemical assay was performed as described above, but with […] IRAK4 and 1 mM ATP.

Where [1] appears, read: read-out: IRAK4 MSD Biochemical Assay (1 mM ATP, 2 h) IC50.

T1 sequence (P08183 whole entry): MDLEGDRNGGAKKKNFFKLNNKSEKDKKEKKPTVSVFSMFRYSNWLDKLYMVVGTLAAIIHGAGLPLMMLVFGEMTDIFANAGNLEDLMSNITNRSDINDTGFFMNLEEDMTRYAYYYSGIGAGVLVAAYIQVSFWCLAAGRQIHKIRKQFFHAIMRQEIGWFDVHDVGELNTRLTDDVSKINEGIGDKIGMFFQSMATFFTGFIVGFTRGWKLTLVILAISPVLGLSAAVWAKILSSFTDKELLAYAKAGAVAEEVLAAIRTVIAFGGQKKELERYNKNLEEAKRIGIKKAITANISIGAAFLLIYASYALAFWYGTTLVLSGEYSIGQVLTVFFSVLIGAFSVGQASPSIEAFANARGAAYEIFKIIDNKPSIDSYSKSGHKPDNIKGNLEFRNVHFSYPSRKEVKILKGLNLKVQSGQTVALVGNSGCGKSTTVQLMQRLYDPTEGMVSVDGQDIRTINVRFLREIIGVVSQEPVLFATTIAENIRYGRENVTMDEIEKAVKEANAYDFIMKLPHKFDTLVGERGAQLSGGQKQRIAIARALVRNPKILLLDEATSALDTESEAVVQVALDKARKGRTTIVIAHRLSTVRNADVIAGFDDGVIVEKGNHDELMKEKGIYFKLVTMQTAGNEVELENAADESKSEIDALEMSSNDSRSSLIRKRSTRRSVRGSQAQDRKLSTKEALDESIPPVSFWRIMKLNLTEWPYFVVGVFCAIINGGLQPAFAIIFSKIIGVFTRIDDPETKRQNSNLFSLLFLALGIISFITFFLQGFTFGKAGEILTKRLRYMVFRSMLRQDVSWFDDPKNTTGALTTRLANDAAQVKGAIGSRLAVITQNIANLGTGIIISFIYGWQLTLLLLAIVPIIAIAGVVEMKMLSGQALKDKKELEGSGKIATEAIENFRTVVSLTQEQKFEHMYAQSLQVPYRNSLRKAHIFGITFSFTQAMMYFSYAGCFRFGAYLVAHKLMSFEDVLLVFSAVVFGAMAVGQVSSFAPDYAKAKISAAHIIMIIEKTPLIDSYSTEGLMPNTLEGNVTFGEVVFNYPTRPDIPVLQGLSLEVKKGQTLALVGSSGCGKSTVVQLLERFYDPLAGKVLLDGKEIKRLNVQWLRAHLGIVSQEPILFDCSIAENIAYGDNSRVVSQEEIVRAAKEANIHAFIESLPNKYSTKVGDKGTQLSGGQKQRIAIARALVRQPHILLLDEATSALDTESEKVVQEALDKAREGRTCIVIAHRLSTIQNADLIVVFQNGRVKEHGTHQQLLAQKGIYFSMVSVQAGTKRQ

The IC50 is the point on the concentration scale where inhibition reaches its midpoint. Regarding `COc1cccc(NC(=O)c2cc3cn(C4CCOC4)nc3cc2OC)n1.O=C(O)C(F)(F)F` (centres unmarked) [Example 4, 6-Methoxy-N-(6-methoxypyridin-2-yl)-2-(tetrahydrofuran-3-yl)-2H-indazole-5-carboxamide trifluoroacetate], on MDR1 (P-gp), the efflux ratio at 120 min, 1 μM turned out to be 0.4. Moreover, the IC50 at IRAK4 (setting [1]) turned out to be 3380 nM.
The matching figures for `O=C(Nc1cccc(C(F)F)n1)c1cc2cn(CC3CCOC3)nc2cn1` (centres unmarked) [Example 8, N-(6-(difluoromethyl)pyridin-2-yl)-2-((tetrahydrofuran-3-yl)methyl)-2H-pyrazolo[3,4-c]pyridine-5-carboxamide Trifluoroacetate]: 0.6 and 275 nM.
The matching figures for `Cc1cnc2c(NC(=O)c3cc4cn(C5CCCOC5)nc4nc3OC3CCC3)cnn2c1` (single isomer, unassigned) [Example 131]: 2.6 and 0.2 nM.
The matching figures for `COc1cccc(NC(=O)c2cc3cn(C4CCOCC4)nc3cc2OC)n1.O=C(O)C(F)(F)F` [Example 5, 6-Methoxy-N-(6-methoxypyridin-2-yl)-2-(tetrahydro-2H-pyran-4-yl)-2H-indazole-5-carboxamide trifluoroacetate]: 0.6 and 21 nM.
For `CC12CC(n3cc4cc(C(=O)Nc5cccn(C(F)F)c5=O)c(OC5CCC5)cc4n3)(CO1)C2` [Example 84, 6-Cyclobutoxy-N-(1-(difluoromethyl)-2-oxo-1,2-dihydropyridin-3-yl)-2-(1-methyl-2-oxabicyclo[2.1.1]hexan-4-yl)-2H-indazole-5-carboxamide trifluoroacetate], the efflux ratio at 120 min, 1 μM on MDR1 (P-gp) turned out to be 0.9. For the same compound, the IC50 at IRAK4 (setting [1]) was 0.5 nM.
The matching figures for `Cn1cccc(NC(=O)c2cc3cn(C[C@@H]4CCOC4)nc3nc2OC2CCC2)c1=O` (single isomer, unassigned) [Example 113]: 5.3 and 2.1 nM.
In the case of `CC(C)Oc1nc2nn(C[C@H]3CCOC3)cc2cc1C(=O)Nc1cnn2cccnc12` (single isomer, unassigned) [Example 118], the efflux ratio at 120 min, 1 μM on MDR1 (P-gp) came to 3.1. On IRAK4 (IRAK4 MSD Biochemical Assay (1 mM ATP, 2 h) IC50 (nM)), the IC50 is 0.8 nM.
Consider `CC(C)Oc1nc2nn([C@H]3CCCOC3)cc2cc1C(=O)Nc1cnn2cccnc12` (single isomer, unassigned) [Example 121], for which the efflux ratio at 120 min, 1 μM at MDR1 (P-gp) came to 1.1. For the same compound, on IRAK4 (setting [1]), the IC50 was 0.7 nM.
On to `CC(C)Oc1cc2nn(C3COC3)cc2cc1C(=O)Nc1cnn2cccnc12` [Example 38, 6-Isopropoxy-2-(oxetan-3-yl)-N-(pyrazolo[1,5-a]pyrimidin-3-yl)-2H-indazole-5-carboxamide], for which the efflux ratio at 120 min, 1 μM on MDR1 (P-gp) amounted to 2.3. On IRAK4 (setting [1]), the IC50 was found to be 11.2 nM.
The matching figures for `CC(C)Oc1cc2nn(CCC(C)(C)O)cc2cc1C(=O)Nc1cnn2cccnc12` [Example 34, 2-(3-Hydroxy-3-methylbutyl)-6-isopropoxy-N-(pyrazolo[1,5-a]pyrimidin-3-yl)-2H-indazole-5-carboxamide]: 14.2 and 1 nM.
On the same counts, the results for `Cc1cnc2c(NC(=O)c3cc4cn(C[C@@H]5CCOC5)nc4nc3OC(C)C)cnn2c1` (single isomer, unassigned) [Example 105] are 4.8 and 1.5 nM.
As for `COCCn1cc2cc(C(=O)Nc3cccc(C(F)F)n3)c(OC(C)C)cc2n1.Cl` [Example 28, N-(6-(difluoromethyl)pyridin-2-yl)-6-isopropoxy-2-(2-methoxyethyl)-2H-indazole-5-carboxamide hydrochloride], the efflux ratio at 120 min, 1 μM on MDR1 (P-gp) turned out to be 0.4. Further, the IC50 on IRAK4 (setting [1]) was 4.4 nM.
On to `CC(C)Oc1cc2nn(C34CCC(C)(C3)OC4)cc2cc1C(=O)Nc1cccc(C(F)F)n1` (centres unmarked) [Example 97, N-(6-(difluoromethyl)pyridin-2-yl)-6-isopropoxy-2-(1-methyl-2-oxabicyclo[2.2.1]heptan-4-yl)-2H-indazole-5-carboxamide], for which the efflux ratio at 120 min, 1 μM at MDR1 (P-gp) stood at 1.1. Moreover, the IC50 on IRAK4 (setting [1]) was 0.2 nM.
